Where only a bound is given, the exact number is not on record here.

In the case of `COc1ccc(-c2nn(CC3CC3)c(=O)c(C(N)=O)c2-c2ccc(OC)cc2)cc1`, the melting point lay within 174 to 175 °C.

In the case of `N#CC1=C(C2CCN(C(=O)c3ccccc3)CC2)Nc2n[nH]cc2C1c1cccc(C#N)c1Br` (stereo not given), the melting point was more than 280 °C. In turn, `O=C(O)Cc1cccc2c(-c3ccc(Cl)cc3)nccc12` returned a melting point of 234 to 236 °C. In turn, `CC(CO)(CO)OCc1ccccc1` showed a melting point of 89.5 to 90 °C.

For `CN(C)C=Nc1c(S(=O)C(F)(F)F)c(-c2ncon2)nn1-c1c(Cl)cc(C(F)(F)F)cc1Cl` (stereo not given), the melting point was 140 °C.

Compound `COC(=O)c1cc(-c2nc(COc3ccc(C=O)cc3OC)c(C)o2)ccc1C` returned a melting point of 136 to 137 °C.

Regarding `Cc1nn(-c2c(Cl)cc(C(F)(F)F)cc2Cl)c(C)c1C=O`, the melting point lay in the range of 82 to 83 °C. For `CCOC(=O)C(Cl)=Cc1cc(NC(=O)CC(C)CC(=O)O)ccc1Cl` (stereo not given) the value was 82 to 84 °C; for `COc1ccc(C(=O)c2cnn(C)c2O)c(Cl)c1N=C1CCCCS1=O` (stereo not given), 89 to 91 °C; for `O=C(O)C(O)=CC(=O)c1cc(Cc2ccccc2)cn(Cc2ccccc2)c1=O`, 158 to 159 °C. In the case of `COc1ccc(C(=O)NC(Cc2ccccc2)C(=O)NC(Cc2ccc(O)cc2)C(=O)O)cc1` (stereo not given), the melting point lay in the range of 198 to 200 °C.

In turn, `COC(=O)CSc1nc(N2CCN(c3ccccn3)CC2)ncc1[N+](=O)[O-]` came in with a melting point of 199 to 202 °C. The result for `Cc1ccc(S(=O)(=O)OCC2Cc3c(F)ccc(Br)c3O2)cc1` (stereo not given) reads 100 to 103 °C; that for `COc1ccc(COCc2nc(C(C)C)c(Sc3cc(Cl)cc(Cl)c3)n2CC(F)(F)F)cc1`, 134 to 136 °C; that for `Clc1ccc(C2(Cn3ccnc3)OCC(CCc3ccccc3)O2)c(Cl)c1` (stereo not given), 118 °C. On to `O=C(NCCCN1CCN(Cc2ccc(Cl)cc2)CC1)Nc1ccccc1`, for which the melting point was in the range of 135 to 137 °C. For `CCCC(CCC)C(=O)NC(=O)CN` the value was 127 °C; for `CCCCCCCCCCCCCCCCCCOc1cc(C(=O)O)cc(C(=O)N(CC(=O)O)CC(=O)O)c1`, 108 to 112 °C. For `CCOC(=O)c1c(OCC)nsc1NC(=O)NC` the value was 195 to 196 °C; for `COC(=O)C(C)(C)OCc1cc2cc(Cl)ccc2n1S(=O)(=O)c1ccc2c(c1)OCO2`, 90 to 92 °C. The result for `CCCC(O)(CCC)c1ccc(C2=CC=CC(OCc3ccc(CO)c(CO)c3)C2(C)C)cc1` (stereo not given) reads 118 to 120 °C. In the case of `Nc1ccc2[nH]nc(Nc3nc(-c4ccccc4C(F)(F)F)nc4ccccc34)c2c1`, the melting point was in the range of 221 to 223 °C. The result for `CC(C)OC(=O)c1cc(-c2ccccc2)c(=O)n2c1-c1sccc1CC2` reads 166 °C; that for `ON=C(c1ccc2c(c1)OCO2)C(F)(F)F`, 96 °C. `O=C(C=Cc1ccc(OCc2ccccc2)c([N+](=O)[O-])c1)Nc1ccc(Cl)cc1Cl`: the melting point is 152 to 153 °C.

In turn, `COc1cc(OC)c(-c2cc3ccccc3s2)cc1/C=C/C(=O)c1ccc(C(=O)NCC(F)(F)F)cc1` came in with a melting point of 215 to 217 °C. The result for `Cc1cccnc1S(=O)(=O)NC(C)(C)C` reads 107 to 110 °C; that for `COc1cc2cc(C(=O)N3CC(CCl)c4c3cc(NC(=O)OCc3ccc([N+](=O)[O-])cc3)c3ccccc43)[nH]c2c(OC)c1OC` (stereo not given), 191 to 192 °C.

`Cc1nc(N2CCN(Cc3ccccc3)C2=O)sc1C(=O)NCc1ccccn1`: the melting point was 149 to 151 °C. The result for `Nc1cccc2snnc12` reads 67 °C; that for `Brc1ccc(SC23CC4CC(CC(C4)C2)C3)cc1`, 121 to 122 °C. `O=[N+]([O-])c1ccc(OCc2ccccn2)cc1` showed a melting point of 116 to 117 °C. For `O=C(O)Cc1ccc(OCCNC(=O)C2Cc3ccccc3N2S(=O)(=O)c2ccc(-c3cc(C(F)(F)F)ccc3Cl)cc2)cc1F` (stereo not given) the value was 105 °C; for `CCC(NC(=NC#N)Nc1ccc(N)nc1)c1ccccc1` (stereo not given), 178 °C; for `N#Cc1cnn(-c2c(Cl)cc(Cl)cc2Cl)c1Cl`, 78 to 79 °C. For `CCN(CCCc1c[nH]c2ccc(F)cc12)C1COc2c(F)ccc(C(=O)NC)c2C1` (stereo not given) the value was 118 °C; for `C=CCCc1ccc(C=NN=Cc2ccc(C)cc2)cc1`, 82 °C.

For the compound `Cc1noc2cc3c(cc12)C1(CO3)C(=O)N(Cc2ccc(C(F)(F)F)o2)c2ccccc21` (stereo not given), the melting point lay in the range of 111 to 112 °C. Compound `CC(C)Cn1c(=O)n(C)c(=O)c2c(SCCCO)n(Cc3cccc4ccccc34)nc21` had a melting point of 135 °C. For `C=CCCc1sc(C#N)c2c1C(=O)CC(C)(C)C2` the value was 43 to 46 °C.

Values taken from a melting point compilation (Tetko et al.; mined from patent text by program, amines drawn as free bases though some values may be those of a salt).
